Columns and labels:
Type in all cases: functional
A549 [1] = assay: Cytotoxicity against human A549 cells after 72 hrs by MTT assay; details: A549, 72 h, read-out: pLC50 (the source's name) (converted)
A549 [2] = assay: Growth inhibition of human A549 cells after 72 hrs by MTT assay; details: A549, 72 h
NCI-H226 [3] = assay: Growth inhibition of human NCI-H226 cells after 72 hrs by MTT assay; details: NCI-H226, 72 h
NCI-H226 [4] = assay: Cytotoxicity against human NCI-H226 cells after 72 hrs by MTT assay; details: NCI-H226, 72 h

SMILES | CC50 (A549 [1]) [µM] | GI50 (A549 [2]) [µM] | GI50 (NCI-H226 [3]) [µM] | LC50 (NCI-H226 [4]) [µM]
CN(C)c1ccc(/C=C/c2ccc3ccccc3[n+]2C)cc1 | 70.8 | 1.55 | 0.631 | –
CN(C)c1ccc(/C=C/c2cc[n+](C)cc2)cc1 | – | 1.58 | 10 | –
C[n+]1c(/C=C/c2ccc(-c3ccccc3)s2)ccc2ccccc21 | – | 2 | 1.45 | 38
CCCCN(CCCC)c1ccc(-c2ccc(/C=C/c3ccc4ccccc4[n+]3C)s2)s1 | – | 0.01 | 0.0457 | 10
C[n+]1c(/C=C/c2ccc(N(c3ccccc3)c3ccccc3)cc2)cccc1/C=C/c1ccc(N(c2ccccc2)c2ccccc2)cc1 | 39.8 | 3.16 | 2 | 33.1
CCCCN(CCCC)c1ccc(-c2ccc(/C=C/c3cccc(/C=C/c4ccc(-c5ccc(N(CCCC)CCCC)s5)s4)[n+]3C)s2)s1 | – | 4.79 | 1 | –
CN(C)c1ccc(/C=C(\C#N)c2cccc[n+]2C)cc1 | – | 3.8 | 19.5 | –
Cn1cccc1/C=C/c1cccc[n+]1C | – | 22.9 | 100 | –
Cn1cccc1/C=C/c1cc[n+](C)cc1 | – | 1.66 | 100 | –
CN(C)c1ccc(/C=C/c2cccc(/C=C/c3ccc(N(C)C)cc3)[n+]2C)cc1 | 13.2 | 0.372 | 0.0447 | 13.8

— ChEMBL document CHEMBL1926608, “Design, synthesis and in vitro antitumour activity of new heteroaryl ethylenes” (2012)
